pIC50: −log10 of the molar value. Like-named read-outs stand apart in the source and are kept apart here.
Experiments:
[1] = tested on: normal human peripheral blood mononuclear cells; test: Cell viability (Presto Blue), normal human PBMCs; type: cell-based; settings: for pIC50: Homo sapiens, PBMC
Protocol: (§1) Three cancer cell lines, multiple myeloma KMS12E, Non-hodgkin's lymphoma SU-DHL4, T-cell lymphoma Hut-78, and normal human peripheral blood mononuclear cells derived from healthy individual were tested. The cells were plated in 384 well plates in RPMI medium supplemented with 10% fetal bovine serum. Cancer cells were plated at 1000 cells/well and normal cells at 10,000 cells per well in a total volume of 30 uL/well. Immediately after plating, the test compounds were added at […] concentrations: 10 uM-1 uM-0.01 uM-0.001 uM, in duplicate wells for each concentration. The cells were exposed to compounds for 70 hours at 37° C. in humidified incubator with 5% CO2. Cell viability was determined by Presto Blue reagent (Thermo Scientific/Invitrogen).

T-cell lymphoma Hut-78 = test: Cell viability (Presto Blue), T-cell lymphoma Hut-78; type: cell-based; settings: Homo sapiens, HuT78, Hut-78 cells, 70 hours exposure
Protocol: as §1

[2] = tested on: multiple myeloma KMS12E, Non-hodgkin's lymphoma SU-DHL4, T-cell lymphoma Hut-78; test: Cell viability (Presto Blue), panel of cancer cell lines; type: cell-based; settings: Homo sapiens; range over KMS12E, SU-DHL4, Hut-78; 70 hours; read-out: IC50, viability of the three cancer cell lines
Protocol: Three cancer cell lines, multiple myeloma KMS12E, Non-hodgkin's lymphoma SU-DHL4, T-cell lymphoma Hut-78, and normal human peripheral blood mononuclear cells derived from healthy individual were tested. The cells were plated in 384 well plates in RPMI medium supplemented with 10% fetal bovine serum. Cancer cells were plated at 1000 cells/well and normal cells at 10,000 cells per well in a total volume of 30 uL/well. Immediately after plating, the test compounds were added at five concentrations: 10 uM-1 uM-0.01 uM-0.001 uM, in duplicate wells for each concentration. The cells were exposed to compounds for 70 hours at 37° C. in humidified incubator with 5% CO2. Cell viability was determined by Presto Blue reagent (Thermo Scientific/Invitrogen).

multiple myeloma KMS12E = test: Cell viability (Presto Blue), multiple myeloma KMS12E; type: cell-based; settings: Homo sapiens, KMS12E cells, 70 hours exposure, read-out: Plasma cell myeloma, IC50
Protocol: as §1

[3] = tested on: Acute myelomonocytic leukemia cells ML-2; test: Caspase3/7 activity (Caspase-Glo 3/7) in ML-2 cells; type: cell-based; settings: 15 h, 24 h and 41 h after exposure
Protocol: Acute myelomonocytic leukemia cells ML-2 were plated in 96 well plate at a density of 50,000 cells per a well in RPMI medium supplemented with 10% FBS. The cells were exposed to compounds and the early apoptosis marker, Caspase3/7 activity, was measured in the cells at 15 h, 24 h and 41 h after exposure to compounds. The caspase activity was determined using Caspase-Glo® 3/7 Assay (Promega) and according to the protocol provided by the manufacturer.

[4] = tested on: IL-23 secretion by LPS-induced PBMCs; test: IL-23 secretion by LPS-stimulated human PBMCs (ELISA); type: cell-based; settings: 2 h pre-incubation, 100 ng/mL LPS 18 hours
Protocol: Human PBMCs were plated in 96 well plate at a density of 150,000 cells per a well in RPMI medium supplemented with 10% FBS. The cells were pre-incubated with compounds for 2 h. Following pre-incubation, the cells were stimulated with 100 ng/mL LPS for 18 hours. The secreted IL-23 was determined by ELISA (Human IL-23 Quantikine ELISA Kit, R&D cat #D2300B).

[5] = target: T1, Full length human recombinant PIKFYVE (Homo sapiens, UniProt Q9Y2I7); test: Biochemical PIKfyve assay; settings: 2 nM enzyme, 10 μM ATP, 3 h room temperature
T1 construct: Full length human recombinant PIKFYVE expressed in baculovirus expression system as N-terminal GST-fusion protein; GST (N); purchased Carna Biosciences (Kobe, Japan); host or cells: baculovirus expression system
Protocol: Full length human recombinant PIKFYVE expressed in baculovirus expression system as N-terminal GST-fusion protein (265 kDa) was obtained from Carna Biosciences (Kobe, Japan). […] The kinase reactions were allowed to proceed for 3 h at room temperature. […] Terminated plates were analyzed on a microfluidic electrophoresis instrument (Caliper LabChip® 3000, Caliper Life Sciences/Perkin Elmer).

[6] = viability, Presto Blue, 70 hours exposure, read-out: Normal human PBMCs, IC50

T1 sequence (Q9Y2I7 whole entry, the tested form may be a part): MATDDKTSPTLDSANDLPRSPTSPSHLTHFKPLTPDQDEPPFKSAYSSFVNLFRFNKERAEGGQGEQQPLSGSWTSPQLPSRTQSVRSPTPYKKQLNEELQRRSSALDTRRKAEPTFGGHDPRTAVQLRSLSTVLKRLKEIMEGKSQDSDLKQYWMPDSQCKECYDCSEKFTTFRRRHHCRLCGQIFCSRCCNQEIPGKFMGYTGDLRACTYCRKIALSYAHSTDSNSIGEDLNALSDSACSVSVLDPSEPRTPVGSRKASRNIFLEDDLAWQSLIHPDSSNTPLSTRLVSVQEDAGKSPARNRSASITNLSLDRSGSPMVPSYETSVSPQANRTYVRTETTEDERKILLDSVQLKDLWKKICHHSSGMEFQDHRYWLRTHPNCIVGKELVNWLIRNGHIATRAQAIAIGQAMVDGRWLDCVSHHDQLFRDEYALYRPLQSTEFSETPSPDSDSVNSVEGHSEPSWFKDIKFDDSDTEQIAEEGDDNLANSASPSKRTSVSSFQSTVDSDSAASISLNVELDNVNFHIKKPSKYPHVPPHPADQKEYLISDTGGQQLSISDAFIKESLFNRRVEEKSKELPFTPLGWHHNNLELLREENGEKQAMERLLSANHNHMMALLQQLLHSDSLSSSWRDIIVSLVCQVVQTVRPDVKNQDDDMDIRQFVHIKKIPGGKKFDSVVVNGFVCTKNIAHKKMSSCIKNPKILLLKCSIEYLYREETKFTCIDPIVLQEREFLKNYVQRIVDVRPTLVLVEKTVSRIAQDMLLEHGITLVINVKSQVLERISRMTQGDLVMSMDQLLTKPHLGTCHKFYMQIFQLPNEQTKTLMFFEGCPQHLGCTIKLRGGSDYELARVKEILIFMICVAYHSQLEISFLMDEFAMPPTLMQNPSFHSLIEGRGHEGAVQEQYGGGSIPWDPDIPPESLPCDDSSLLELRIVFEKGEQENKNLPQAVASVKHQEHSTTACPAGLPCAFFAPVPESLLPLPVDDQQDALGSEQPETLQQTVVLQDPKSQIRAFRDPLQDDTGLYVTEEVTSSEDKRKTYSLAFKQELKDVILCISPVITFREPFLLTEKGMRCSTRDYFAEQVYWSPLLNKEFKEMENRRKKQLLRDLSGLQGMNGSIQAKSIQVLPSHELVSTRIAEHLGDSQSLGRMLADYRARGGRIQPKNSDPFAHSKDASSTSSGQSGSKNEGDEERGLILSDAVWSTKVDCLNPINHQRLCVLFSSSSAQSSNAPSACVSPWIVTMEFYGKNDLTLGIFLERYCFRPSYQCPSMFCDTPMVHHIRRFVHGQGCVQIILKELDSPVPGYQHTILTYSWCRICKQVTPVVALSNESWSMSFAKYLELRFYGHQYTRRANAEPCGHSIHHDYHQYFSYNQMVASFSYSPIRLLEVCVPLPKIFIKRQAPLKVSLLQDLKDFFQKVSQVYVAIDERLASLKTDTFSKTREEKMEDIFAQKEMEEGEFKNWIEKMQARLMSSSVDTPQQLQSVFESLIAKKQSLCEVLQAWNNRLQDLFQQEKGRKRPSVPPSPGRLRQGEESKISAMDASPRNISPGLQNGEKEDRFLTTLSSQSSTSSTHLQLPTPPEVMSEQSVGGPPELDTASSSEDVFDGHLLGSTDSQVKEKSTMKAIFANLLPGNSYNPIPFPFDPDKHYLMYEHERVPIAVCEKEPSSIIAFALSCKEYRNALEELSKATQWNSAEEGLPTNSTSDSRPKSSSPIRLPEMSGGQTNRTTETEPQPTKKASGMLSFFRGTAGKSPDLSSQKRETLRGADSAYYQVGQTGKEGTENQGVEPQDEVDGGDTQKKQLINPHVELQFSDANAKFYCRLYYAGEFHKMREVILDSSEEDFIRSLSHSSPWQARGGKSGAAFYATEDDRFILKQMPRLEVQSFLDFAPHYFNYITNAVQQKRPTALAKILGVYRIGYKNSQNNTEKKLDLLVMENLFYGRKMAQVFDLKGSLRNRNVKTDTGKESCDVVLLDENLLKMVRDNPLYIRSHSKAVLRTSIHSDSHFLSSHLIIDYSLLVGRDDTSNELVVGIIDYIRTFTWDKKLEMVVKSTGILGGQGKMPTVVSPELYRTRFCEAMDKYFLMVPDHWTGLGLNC

Row | pIC50 (T-cell lymphoma Hut-78) | pIC50 [2] | pIC50 (multiple myeloma KMS12E) | SMILES | pIC50 ([1]; 70 hours, Example 14 text, read-out: IC50, viability of normal PBMCs) | pIC50 [1, 6] | Caspase3/7 activation (early apoptosis marker) [3] | secretion of IL-23 [4] | selectivity towards cancer cells over normal cells ([1]; Hut-78 and KMS12E vs normal human PBMCs) | pIC50 [5]
1 | 7.55 | 7.34 to 7.48 | 7.13 | Cc1cccc(/C=N/Nc2cc(N3CCOCC3)n3nc(-c4ccncc4)cc3n2)c1 [APY0201] | < 5.00 | < 5.00 | induce apoptosis | completely blocked secretion of IL-23 |  | 
2 | 7.57 |  | 7.14 | Cc1cccc(/C=N/Nc2cc(N3CCOCC3)nc(OCCc3ccccn3)n2)c1 [Apilimod, apilimod] |  | < 5.00 | induce apoptosis |  |  | 

Row | SMILES | pIC50 (T-cell lymphoma Hut-78) | pIC50 [2] | pIC50 (multiple myeloma KMS12E) | pIC50 ([1]; 70 hours, Example 14 text, read-out: IC50, viability of normal PBMCs) | pIC50 [1, 6] | Caspase3/7 activation (early apoptosis marker) [3] | secretion of IL-23 [4] | selectivity towards cancer cells over normal cells ([1]; Hut-78 and KMS12E vs normal human PBMCs) | pIC50 [5]
3 | Cc1cccc(/C=N/Nc2cc(N3CCOCC3)n3nc(-c4ccncc4)nc3n2)c1 [Compound 1, (E)-4-(5-(2-(3-methylbenzylidene)hydrazinyl)-2-(pyridin-4-yl)-[1,2,4]-triazolo[1,5-a]pyrimidin-7-yl)morpholine] | 7.33 |  | 6.94 |  | < 5.00 | triggered Caspase3/7 activation | completely blocked secretion of IL-23 | showed selectivity towards cancer cells over normal cells | 8.00

Source: patent US11987583B2, “Fused triazolo-pyrimidine compounds having useful pharmaceutical application” (PIKSci Inc., priority 2017, dated 2024)
